From PMC11127902, “Rescuing tri-heteromeric NMDA receptor function: the potential of pregnenolone-sulfate in loss-of-function GRIN2B variants” (Cellular and Molecular Life Sciences: CMLS, 2024)
Read-outs that look alike come from different tables or passages of the source.

Tests used:
[1] = molecular target: T1, Mixed di-heteromeric GluN2B-wt/GluN2B-G689S (Rattus norvegicus, UniProt P35439+Q00960, G689S); assay: TEVC in Xenopus oocytes; format: cell-based
T1 construct: expressed in transfected cells; host or cells: Xenopus laevis oocytes, mRNA injection
Text: (§1) Aliquots were thawed before each experiment.

[2] = molecular target: T2, Purely di-heteromeric GluN2B-G689C (C1/C2) (Rattus norvegicus, UniProt P35439+Q00959+Q00960, A876H/F846L/G689C/G856D/H848F/K857R/M851T/M860L/Q845K/V861L); assay: TEVC in Xenopus oocytes; format: cell-based
T2 construct: expressed in transfected cells; host or cells: Xenopus laevis oocytes, mRNA injection
T2 sequence (Q00960+Q00959 fused with the stated changes, other chains not shown): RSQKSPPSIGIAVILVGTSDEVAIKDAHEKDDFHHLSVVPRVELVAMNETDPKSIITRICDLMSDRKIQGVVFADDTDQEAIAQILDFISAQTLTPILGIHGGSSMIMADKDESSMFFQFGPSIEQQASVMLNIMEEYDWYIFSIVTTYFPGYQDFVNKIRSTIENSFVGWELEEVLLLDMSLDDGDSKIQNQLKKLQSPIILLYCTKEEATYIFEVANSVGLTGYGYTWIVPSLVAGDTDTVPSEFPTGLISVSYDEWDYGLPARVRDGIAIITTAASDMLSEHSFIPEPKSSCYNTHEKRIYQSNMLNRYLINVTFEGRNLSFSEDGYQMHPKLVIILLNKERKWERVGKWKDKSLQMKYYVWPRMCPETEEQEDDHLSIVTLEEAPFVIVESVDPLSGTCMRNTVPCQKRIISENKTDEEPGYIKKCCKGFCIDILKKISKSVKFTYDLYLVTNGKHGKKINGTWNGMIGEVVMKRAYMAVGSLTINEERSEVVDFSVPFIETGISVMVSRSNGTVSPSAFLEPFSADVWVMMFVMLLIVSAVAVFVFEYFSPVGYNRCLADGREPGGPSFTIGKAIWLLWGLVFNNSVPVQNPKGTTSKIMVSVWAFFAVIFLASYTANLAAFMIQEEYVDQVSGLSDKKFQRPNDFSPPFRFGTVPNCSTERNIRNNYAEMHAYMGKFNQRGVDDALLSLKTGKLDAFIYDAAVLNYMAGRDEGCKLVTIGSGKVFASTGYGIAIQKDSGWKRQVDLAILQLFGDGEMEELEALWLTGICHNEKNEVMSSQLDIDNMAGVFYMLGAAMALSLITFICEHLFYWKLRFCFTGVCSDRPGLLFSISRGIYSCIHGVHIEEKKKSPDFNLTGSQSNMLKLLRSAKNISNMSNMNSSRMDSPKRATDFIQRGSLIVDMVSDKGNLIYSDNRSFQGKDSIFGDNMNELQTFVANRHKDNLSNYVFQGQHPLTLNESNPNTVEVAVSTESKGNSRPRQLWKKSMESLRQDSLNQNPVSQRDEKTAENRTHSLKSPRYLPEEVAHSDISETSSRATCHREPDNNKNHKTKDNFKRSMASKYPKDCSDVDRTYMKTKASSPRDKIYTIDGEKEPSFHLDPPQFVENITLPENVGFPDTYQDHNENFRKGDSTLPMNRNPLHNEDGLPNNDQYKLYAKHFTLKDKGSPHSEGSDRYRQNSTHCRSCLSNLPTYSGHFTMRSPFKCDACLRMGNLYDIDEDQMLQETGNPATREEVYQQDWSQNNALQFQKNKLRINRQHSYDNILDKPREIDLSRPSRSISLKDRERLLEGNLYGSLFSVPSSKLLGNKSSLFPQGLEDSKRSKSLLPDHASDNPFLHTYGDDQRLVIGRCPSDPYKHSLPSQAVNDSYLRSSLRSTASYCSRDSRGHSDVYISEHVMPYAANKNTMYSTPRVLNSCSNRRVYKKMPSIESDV
Text: as §1

[3] = molecular target: T3, Purely di-heteromeric GluN2B-G689S (C1/C2) (Rattus norvegicus, UniProt P35439+Q00959+Q00960, A876H/F846L/G689S/G856D/H848F/K857R/M851T/M860L/Q845K/V861L); assay: TEVC in Xenopus oocytes; format: cell-based
T3 construct: expressed in transfected cells; host or cells: Xenopus laevis oocytes, mRNA injection
T3 sequence (Q00960+Q00959 fused with the stated changes, other chains not shown): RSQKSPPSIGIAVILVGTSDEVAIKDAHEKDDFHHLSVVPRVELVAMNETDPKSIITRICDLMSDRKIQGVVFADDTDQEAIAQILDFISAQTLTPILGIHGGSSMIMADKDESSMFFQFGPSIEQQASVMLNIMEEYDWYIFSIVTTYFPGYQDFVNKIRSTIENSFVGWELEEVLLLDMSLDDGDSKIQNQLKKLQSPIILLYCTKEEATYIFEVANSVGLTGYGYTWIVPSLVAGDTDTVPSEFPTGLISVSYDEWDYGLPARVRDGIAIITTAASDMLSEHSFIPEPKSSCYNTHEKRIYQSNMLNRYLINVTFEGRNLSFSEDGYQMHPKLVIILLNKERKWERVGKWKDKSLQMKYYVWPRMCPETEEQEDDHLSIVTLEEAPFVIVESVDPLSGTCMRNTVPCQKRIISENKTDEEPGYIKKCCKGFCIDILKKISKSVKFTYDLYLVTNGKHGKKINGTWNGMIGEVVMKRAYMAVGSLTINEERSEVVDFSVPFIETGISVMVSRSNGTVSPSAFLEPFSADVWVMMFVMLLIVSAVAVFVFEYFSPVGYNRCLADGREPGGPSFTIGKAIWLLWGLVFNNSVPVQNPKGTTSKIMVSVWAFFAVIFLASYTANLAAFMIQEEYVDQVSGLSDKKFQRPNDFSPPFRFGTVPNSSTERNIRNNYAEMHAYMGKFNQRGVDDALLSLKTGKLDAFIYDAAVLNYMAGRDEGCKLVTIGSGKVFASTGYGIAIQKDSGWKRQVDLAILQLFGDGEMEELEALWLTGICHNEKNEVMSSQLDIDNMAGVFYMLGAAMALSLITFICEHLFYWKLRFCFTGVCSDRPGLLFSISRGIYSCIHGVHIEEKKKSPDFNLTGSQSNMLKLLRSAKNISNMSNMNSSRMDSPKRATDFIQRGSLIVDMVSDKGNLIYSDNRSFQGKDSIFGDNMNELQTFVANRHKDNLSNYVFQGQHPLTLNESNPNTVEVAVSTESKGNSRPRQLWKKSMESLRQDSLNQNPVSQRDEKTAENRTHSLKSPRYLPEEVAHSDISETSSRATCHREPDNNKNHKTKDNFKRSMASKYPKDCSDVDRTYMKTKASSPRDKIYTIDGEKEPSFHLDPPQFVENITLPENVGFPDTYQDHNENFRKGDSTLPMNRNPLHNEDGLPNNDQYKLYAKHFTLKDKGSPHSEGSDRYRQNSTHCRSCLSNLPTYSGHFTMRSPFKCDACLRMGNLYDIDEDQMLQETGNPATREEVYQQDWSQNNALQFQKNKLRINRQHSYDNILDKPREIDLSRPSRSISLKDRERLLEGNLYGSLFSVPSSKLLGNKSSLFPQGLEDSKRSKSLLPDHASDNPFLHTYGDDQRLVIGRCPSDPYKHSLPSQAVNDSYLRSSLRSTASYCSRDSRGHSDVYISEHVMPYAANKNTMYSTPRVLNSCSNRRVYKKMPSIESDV
Text: as §1

[4] = molecular target: T4, Purely di-heteromeric GluN2B-wt (GluN1-1a-wt + GluN2B-wt-C1/C2) (Rattus norvegicus, UniProt P35439+Q00959+Q00960, A876H/F846L/G856D/H848F/K857R/M851T/M860L/Q845K/V861L); assay: TEVC in Xenopus oocytes; format: cell-based; settings: glutamate dose-response
T4 construct: expressed in transfected cells; host or cells: Xenopus laevis oocytes, mRNA injection
T4 sequence (Q00960+Q00959 fused with the stated changes, other chains not shown): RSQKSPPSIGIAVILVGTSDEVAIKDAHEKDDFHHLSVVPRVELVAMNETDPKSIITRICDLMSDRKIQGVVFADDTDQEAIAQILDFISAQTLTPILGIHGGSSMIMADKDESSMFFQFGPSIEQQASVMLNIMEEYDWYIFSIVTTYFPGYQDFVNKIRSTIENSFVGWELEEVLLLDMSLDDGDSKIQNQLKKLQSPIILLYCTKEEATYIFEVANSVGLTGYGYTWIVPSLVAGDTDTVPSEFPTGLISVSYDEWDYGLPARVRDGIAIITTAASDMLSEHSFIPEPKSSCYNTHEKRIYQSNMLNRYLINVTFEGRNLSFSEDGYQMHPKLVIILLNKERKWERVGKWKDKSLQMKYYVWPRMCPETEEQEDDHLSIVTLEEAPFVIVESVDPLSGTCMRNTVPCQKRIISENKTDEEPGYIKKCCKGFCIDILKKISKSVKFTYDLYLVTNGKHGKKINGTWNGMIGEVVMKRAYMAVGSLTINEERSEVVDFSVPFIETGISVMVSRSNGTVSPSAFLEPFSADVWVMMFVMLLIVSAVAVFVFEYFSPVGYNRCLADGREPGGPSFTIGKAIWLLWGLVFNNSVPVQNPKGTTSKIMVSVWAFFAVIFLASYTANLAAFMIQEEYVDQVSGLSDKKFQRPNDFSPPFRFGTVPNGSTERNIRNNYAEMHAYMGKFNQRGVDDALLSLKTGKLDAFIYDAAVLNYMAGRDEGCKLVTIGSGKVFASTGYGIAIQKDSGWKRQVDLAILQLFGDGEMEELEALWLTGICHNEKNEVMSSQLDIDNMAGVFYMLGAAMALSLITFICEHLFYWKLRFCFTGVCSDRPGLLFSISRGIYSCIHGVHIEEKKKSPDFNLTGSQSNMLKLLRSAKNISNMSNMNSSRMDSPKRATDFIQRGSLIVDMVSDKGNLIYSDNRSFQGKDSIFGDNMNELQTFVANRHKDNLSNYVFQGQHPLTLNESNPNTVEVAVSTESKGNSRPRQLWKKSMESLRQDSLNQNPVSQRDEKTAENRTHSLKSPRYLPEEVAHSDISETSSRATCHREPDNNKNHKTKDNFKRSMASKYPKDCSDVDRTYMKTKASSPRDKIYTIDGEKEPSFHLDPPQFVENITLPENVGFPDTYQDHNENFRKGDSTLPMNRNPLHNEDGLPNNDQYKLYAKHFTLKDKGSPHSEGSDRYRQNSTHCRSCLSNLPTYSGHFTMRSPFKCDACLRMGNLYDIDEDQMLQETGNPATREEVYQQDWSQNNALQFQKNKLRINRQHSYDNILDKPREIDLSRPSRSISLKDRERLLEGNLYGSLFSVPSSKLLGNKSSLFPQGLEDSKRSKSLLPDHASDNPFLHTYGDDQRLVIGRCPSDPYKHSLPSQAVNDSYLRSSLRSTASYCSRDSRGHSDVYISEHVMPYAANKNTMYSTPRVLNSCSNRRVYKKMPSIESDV
Text: as §1

[5] = tested on: non-tagged purely di-heteromeric GluN2B-wt; set-up: method as in PMID 32168371; settings: read-out: Glutamate EC50 (adapted from[16]); non-tagged human receptors; cited from earlier work
[6] = tested on: wt di-heteromeric GluN2A NMDAR; settings: glutamate, cited from earlier work
[7] = tested on: wt di-heteromeric GluN2B NMDAR; settings: glutamate, cited from earlier work
[8] = tested on: Mixed di-heteromeric GluN2A-wt/GluN2A-P552R; set-up: method as in PMID 28095420; settings: glutamate; ref 32; cited from earlier work
[9] = tested on: Mixed di-heteromeric GluN2A-wt/GluN2A-T690A; set-up: method as in PMID 24607230; settings: glutamate; ref 8; cited from earlier work
[10] = tested on: Mixed di-heteromeric GluN2A-wt/GluN2A-D731N; set-up: method as in PMID 28182669; settings: glutamate; ref 33; cited from earlier work
[11] = tested on: Mixed di-heteromeric GluN2B-wt/GluN2B-C461F; set-up: method as in PMID 27839871; settings: glutamate; ref 21; cited from earlier work
[12] = tested on: Mixed di-heteromeric GluN2B-wt/GluN2B-H486A; set-up: method as in PMID 24607230; settings: glutamate; ref 8; cited from earlier work
[13] = tested on: Pure variant di-heteromeric GluN2A-H485A; set-up: method as in PMID 24607230; settings: glutamate; ref 8; cited from earlier work
[14] = tested on: Pure variant di-heteromeric GluN2A-T690A; set-up: method as in PMID 24607230; settings: glutamate; ref 8; cited from earlier work
[15] = tested on: Pure variant di-heteromeric GluN2A-D731N; set-up: method as in PMID 28182669; settings: glutamate; ref 33; cited from earlier work
[16] = tested on: Pure variant di-heteromeric GluN2A-L812M; set-up: method as in PMID 24504326; settings: glutamate; ref 39; cited from earlier work
[17] = tested on: Pure variant di-heteromeric GluN2B-E413G; set-up: method as in PMID 27839871; settings: glutamate; ref 21; cited from earlier work
[18] = tested on: Pure variant di-heteromeric GluN2B-C461F; set-up: method as in PMID 27839871; settings: glutamate; ref 21; cited from earlier work
[19] = tested on: Pure variant di-heteromeric GluN2B-G543R; set-up: method as in PMID 35110392; settings: glutamate; ref 10; cited from earlier work
[20] = tested on: Mixed tri-heteromeric GluN2A-wt/ GluN2B-M818T; set-up: method as in PMID 35110392; settings: glutamate; ref 10; cited from earlier work
[21] = tested on: Mixed tri-heteromeric GluN2A-wt/ GluN2B-A819T; set-up: method as in PMID 35110392; settings: glutamate; ref 10; cited from earlier work
[22] = tested on: Mixed tri-heteromeric GluN2A-P552R/ GluN2B-wt; set-up: method as in PMID 35110392; settings: glutamate; ref 10; cited from earlier work
[23] = tested on: Mixed tri-heteromeric GluN2A-S644G/ GluN2B-wt; set-up: method as in PMID 35110392; settings: glutamate; ref 10; cited from earlier work
[24] = tested on: Mixed tri-heteromeric GluN2A-wt/ GluN2B-H486A; set-up: method as in PMID 24607230; settings: glutamate; ref 8; cited from earlier work
[25] = tested on: Mixed tri-heteromeric GluN2A-H485A/ GluN2B-wt; set-up: method as in PMID 24607230; settings: glutamate; ref 8; cited from earlier work
[26] = tested on: Double Variant Tri-Heteromeric NMDAR (GluN2A-H485A, GluN2B-H486A); set-up: method as in PMID 24607230; settings: glutamate; ref 8; cited from earlier work
[27] = compared to GluN2B-wt-C1/C2 receptors

N[C@@H](CCC(=O)O)C(=O)O [Glutamate, glutamate]
higher (improved) glutamate potency ([1]; compared to purely di-heteromeric variant channels): ~ four-fold | Hill coefficient (nH) ([1]; glutamate dose-response): 1.02 ± 0.10 n.s (N = 1, n = 13) | increase in the EC50 value [2, 27]: ~ 2000 fold | Hill coefficient (nH) ([2]; glutamate dose-response): 2.04 ± 0.28 (N = 2, n = 13) | increase in the EC50 value [3, 27]: > 3000 fold | Hill coefficient (nH) ([3]; glutamate dose-response): 2.45 ± 0.41 (N = 2, n = 9) | Hill coefficient (nH) [4]: 0.86 ± 0.29 (N = 6, n = 38) | EC50 [5]: 1.4 ± 0.1 µM | EC50 ([6]; ref 8): 4.2 µM | EC50 ([6]; ref 19): 4.5 µM | EC50 ([6]; ref 32): 3.9 µM | EC50 ([6]; ref 33): 5.7 µM | EC50 ([6]; ref 39): 4 µM | EC50 ([6]; ref 91): 3.6 µM | EC50 ([7]; control of GluN2B-E413G): 0.9 µM | EC50 ([7]; ref 8): 1.6 µM | EC50 [8]: 1.2 µM | EC50 [9]: 660 µM | EC50 [10]: 6450 µM | EC50 [11]: 61 µM | EC50 [12]: 75 µM | EC50 [13]: 1060 µM | EC50 [14]: 2700 µM | EC50 [15]: 30000 µM | EC50 [16]: 0.39 µM | EC50 [17]: 82 µM | EC50 [18]: 290 µM | EC50 [19]: 0.22 µM | EC50 [20]: 0.96 µM | EC50 [21]: 0.71 µM | EC50 [22]: 0.56 µM | EC50 [23]: 0.49 µM | EC50 [24]: 140 µM | EC50 [25]: 210 µM | EC50 [26]: 730 µM
